Values after ≈ are worked out from the molar mass of the structure shown. Like-named read-outs stand apart in the source and are kept apart here.
Columns and labels:
human sebaceous glands = test: Sebum control: micro-dissected cultured sebaceous glands, lipids normalized upon proteins; type: cell-based; details: for sebum reduction: human sebaceous glands cultured six days, compared to untreated control, FIG. 2, single donor
Method: Additional tests were performed with human sebaceous glands in order to verify the modulatory activity of different 1,2-alkanediols on sebum secretion. Several microbial species on the skin are lipid dependent and feed on the human sebum (e.g., Corynebacterium, Propionibacterium). Accordingly, sebum reduction can indirectly support the reduction of microorganisms on the skin and in this way also indirectly support e.g., dandruff or acne reduction. For these experiments sebaceous glands had been micro-dissected and cultured with medium. The medium without any supplement served as untreated control. The medium with 5 μM Capsaicin served as positive control. Additionally, the culture medium was supplemented with different concentrations of alkanediols. After six days the sebaceous glands were collected and lipids and proteins quantified. The total lipid amount being representative of sebum production was obtained by normalizing the quantified lipids upon the quantified proteins (i.e., mg of lipids/mg of proteins).

[1] = Maximum solubility of alkanediols in water; type: physicochemical; details: ambient temperature after 24 h storage at 5° C.; visual observation
Source text: For the determination of the maximum water solubility of an alkanediol, water and different concentrations of the respective alkanediol were blended by stirring. […] The determination of whether the alkanediol has dissolved in water is based entirely on visual observation.

Staphylococcus aureus = test: Minimum Inhibitory Concentration (MIC) test and Kull synergy index; type: cell-based
Propionibacterium acnes = test: Minimum Inhibitory Concentration (MIC) test; type: cell-based; details: Cutibacterium acnes, single substance (Tables 1, 2)
Method: (§1) The Minimum Inhibitory Concentration (MIC) test is a test on growth inhibition. The estimation of MICs is executed in 96 well plates. Through the comparison of bacterial growth with positive and negative controls via optical density (OD), different concentrations of given test substances are evaluated. Bacteria were cultivated under adjusted conditions based on information of the German Collection of Microorganisms and Cell Cultures (DSMZ) and stored in 50% glycerol prior to use. Afterwards, the following method was applied: Growth medium (according to microorganism) was added to each well of the microplate. Then, the test-substances were added in different concentrations, positive controls (water controls only with medium) and negative controls (benchmarks according to organism). Finally, the microorganisms were added in a concentration of 10^6 CFU/ml (CFU=colony forming units). The incubation of the microplates was carried out at appropriate conditions. According to the resulting growth, substance concentrations are labelled either as inhibiting or not and MIC is defined as the lowest concentration where a complete growth inhibition is visible. Experiments at concentration limits (highest concentration labelled as growth and lowest concentration labelled as inhibiting) are performed at least twice.

Escherichia coli = test: Minimum Inhibitory Concentration (MIC) test; type: cell-based; details: single substance (Tables 1, 2)
Method: as §1

Staphylococcus hominis = test: Minimum Inhibitory Concentration (MIC) test; type: cell-based; details: single substance (Tables 1, 2)
Method: as §1

Candida albicans = test: Minimum Inhibitory Concentration (MIC) test; type: cell-based; details: single substance (Tables 1, 2)
Method: as §1

Corynebacterium jeikeium = test: Minimum Inhibitory Concentration (MIC) test; type: cell-based; details: single substance (Tables 1, 2)
Method: as §1

[2] = Table 3, Component B alone, read-out: MIC Component B in ppm

Q: Which sebum reduction (human sebaceous glands) does the source give for `CCCCCC(O)CO` (stereo not shown) [1,2-Heptanediol, 1,2-heptanediol] here?
A: 20%

Q: And the “Maximum solubility in water (% by weight)” value [1]?
A: 2.5 % by weight

Q: For `CCCCC(O)CO` (stereo not shown) [1,2-Hexandiol, 1,2-hexanediol], which “Maximum solubility in water (% by weight)” value [1] is on record?
A: 50 % by weight

Q: With `CCCCCCCC(O)CO` (stereo not shown) [1,2-Nonanediol, 1,2-nonanediol] as the compound, how does the “MIC Component A in ppm” value (Staphylococcus aureus; Table 4, Component A alone) read?
A: 1000 ppm

Q: What about the “concentration dependency of sebum reduction” value (human sebaceous glands; different concentrations, FIG. 3, single donor different from FIG. 2) of the same compound?
A: experimentally confirmed

Q: And the “Maximum solubility in water (% by weight)” value [1]?
A: 0.1 % by weight

Q: For `CCCCCCC(O)CO` (stereo not shown) [1,2-Octandiol, 1,2-octanediol], which “Maximum solubility in water (% by weight)” value [1] is on record?
A: 0.5 % by weight

Q: For `CCCCCCCCCC(O)CO` (stereo not shown) [1,2-Undecanediol, 1,2-undecanediol], which MIC (Staphylococcus aureus; single substance (Tables 1, 2), read-out: Minimum Inhibitory Concentration (MIC)) is on record?
A: 125 µg/mL

Q: What about the MIC (Propionibacterium acnes) of the same compound?
A: 250 µg/mL (≈ 1330 µM)

Q: And the MIC (Escherichia coli)?
A: 250 µg/mL (≈ 1330 µM)

Q: What about the MIC (Staphylococcus hominis) of the same compound?
A: 125 µg/mL (≈ 664 µM)

Q: What about the MIC (Candida albicans) of the same compound?
A: 64 µg/mL (≈ 340 µM)

Q: What about the MIC (Corynebacterium jeikeium) of the same compound?
A: 250 µg/mL (≈ 1330 µM)

Q: And the sebum reduction (human sebaceous glands)?
A: 45%

Q: With `CCCCC(O)C(C)O` (stereo not shown) [2,3-Heptanediol, 2,3-heptanediol] as the compound, how does the “Maximum solubility in water (% by weight)” value [1] read?
A: 3.6 % by weight

Q: With `CCCCCCC(O)C(C)O` (stereo not shown) [2,3-Nonanediol, 2,3-nonanediol] as the compound, how does the sebum reduction (human sebaceous glands) read?
A: 40%

Q: And the “Maximum solubility in water (% by weight)” value [1]?
A: 0.3 % by weight

Q: Which “Maximum solubility in water (% by weight)” value [1] does the source give for `CCCCCC(O)C(C)O` (stereo not shown) [2,3-Octanediol, 2,3-octanediol] here?
A: 1.5 % by weight

Q: What does the source list for `OCc1ccccc1` [Benzyl Alcohol]?
A: MIC (Staphylococcus aureus; [2]): 5000 µg/mL; MIC Component B in ppm (Staphylococcus aureus; Table 4, Component B alone): 5000 ppm

Q: For `CCCCCCCC(=O)NO` [Caprylhydroxamic acid], which MIC (Staphylococcus aureus; [2]) is on record?
A: 1000 µg/mL

Q: And the “MIC Component B in ppm” value (Staphylococcus aureus; Table 4, Component B alone)?
A: 1000 ppm

Q: Which MIC (Staphylococcus aureus; [2]) does the source give for `CC(C)(C)C(=O)C(Oc1ccc(Cl)cc1)n1ccnc1` (stereo not shown) [Climbazole] here?
A: 250 µg/mL

Q: Which “MIC Component B in ppm” value (Staphylococcus aureus; Table 3, Component B alone) does the source give for `CCCCC(CC)COCC(O)CO` (stereo not shown) [Ethylhexylglycerin] here?
A: 2000 ppm

Q: With `CCCCCCCC(=O)OCC(O)CO` (stereo not shown) [Glyceryl caprylate] as the compound, how does the MIC (Staphylococcus aureus; [2]) read?
A: 2500 µg/mL

Reference: patent US20230293409A1, “Compositions Comprising Antimicrobials and (Bio)-Alkanediols for Skin Protection” (Symrise AG, priority 2020, published 2023)
